Entries after “also recorded” stand apart in the source; their conditions may differ.

This note sets out measurements from patent US20210308093A1, “ACTIVATOR FOR SIMULTANEOUSLY ACTIVATING OXIDATIVE PHOSPHORYLATION AND INHIBITING GLYCOLYSIS AND USE THEREOF” (LANZHOU UNIVERSITY, priority 2019, published 2021).

For series [1], the system named is oxidative phosphorylation in HepG2 cells. Kind of series: Measurement of oxidative phosphorylation and glycolysis in HepG2 cells (Seahorse XF). Type of series: cell-based. The source says:
With quantitative proteomics analysis, the present disclosure finds that the natural product baicalein can activate the oxidative phosphorylation. Then, it is necessary to clarify relationship between activation of the oxidative phosphorylation by baicalein and anti-cancer activity thereof. Cancer cells have the “Warburg effect”, that is, cancer cells tend to use glycolysis in replace of the oxidative phosphorylation which normal cells tend to use, so that cancer cells grow at a much faster rate than normal cells. […] The present disclosure verifies this phenomenon in HepG2 and HuH7 cells. […] 1,000 cells or 4 μg mitochondria were added to the well plate provided by the Seahorse detection kit (Agilent, 103275-100). Related measurements were carried out following instructions.

Series [2] concerns HuH7 cells. As to the kind of experiment: siRNA knockdown of key enzyme of oxidative phosphorylation, effect on anti-cancer activity (MTT, HuH7). The series is classed as cell-based. An excerpt: With quantitative proteomics analysis, the present disclosure finds that the natural product baicalein can activate the oxidative phosphorylation. Then, it is necessary to clarify relationship between activation of the oxidative phosphorylation by baicalein and anti-cancer activity thereof. Cancer cells have the “Warburg effect”, that is, cancer cells tend to use glycolysis in replace of the oxidative phosphorylation which normal cells tend to use, so that cancer cells grow at a much faster rate than normal cells. […] The present disclosure verifies this phenomenon in HepG2 and HuH7 cells. […] (See FIG. 4)
The siRNA constructs listed below were designed and synthesized by GenePharma (Shanghai, China). At a modeling stage before baicalein treatment, interference was performed based on the RNAiMAX (Thermo Fisher Scientific) protocol.
(§1) 10^4 cells were added to a 96-well plate. 100 μL of pre-warmed medium was added to each well. After attachment, the cells were starved in a serum-free medium for 24 h, and then transferred to a normal medium containing 100 μM baicalein and cultured for another 24 h. After treatment, the cells were incubated with 100 μL of conventional medium containing 50 μg MTT (Sigma-Aldrich) for 4 h. Finally, purple precipitates were dissolved in 200 μL of DMSO (Sigma-Aldrich), and absorbance at 490 nm was measured by a microplate reader (Bio-Rad).

For series [3], the system named is oxidative phosphorylation in mitochondria. Kind of series: Measurement of oxidative phosphorylation (ATP production) in mitochondria extracted from HuH7 cells. Type of series: biochemical. The conditions noted are these: concentration gradient and incubation time gradient. The protocol: Based on the above results, effect of baicalein on oxidative phosphorylation needs to be clarified initially. Therefore, effects of different concentrations of baicalein on oxidative phosphorylation are tested at a cellular level. […] Further analysis finds that, baicalein (100 μM) can improve basal respiration value, maximum respiration value and ATP production in oxidative phosphorylation. […] In order to further confirm effect of baicalein on the oxidative phosphorylation, the present disclosure further extracts mitochondria, a main site where the oxidative phosphorylation locates, and tests effect of baicalein concentration gradient and incubation time gradient on oxidative phosphorylation in the mitochondria. […] At this point, the present disclosure discovers a natural activator of the oxidative phosphorylation, the baicalein. […] Measurement of oxidative phosphorylation with Seahorse XF (Agilent): HuH7 cells, HepG2 cells and mitochondria were prepared. 1,000 cells or 4 μg mitochondria were added to the well plate provided by the Seahorse detection kit (Agilent, 103275-100). Related measurements were carried out following instructions. Measurement of oxidative phosphorylation (ATP production) with QQQ-MS (AB Sciex): mitochondria were extracted from HuH7 cells. A reaction system was prepared according to Table 1 below. 4 μg of mitochondria was added to a 100 μL reaction system. […]

Series [4] concerns oxidative phosphorylation in HuH7 cells. As to the kind of experiment: Measurement of oxidative phosphorylation and glycolysis in HuH7 cells (Seahorse XF). The series is classed as cell-based. The protocol:
Based on the above results, effect of baicalein on oxidative phosphorylation needs to be clarified initially. Therefore, effects of different concentrations of baicalein on oxidative phosphorylation are tested at a cellular level. […] Further analysis finds that, baicalein (100 μM) can improve basal respiration value, maximum respiration value and ATP production in oxidative phosphorylation. […] In order to further confirm effect of baicalein on the oxidative phosphorylation, the present disclosure further extracts mitochondria, a main site where the oxidative phosphorylation locates, and tests effect of baicalein concentration gradient and incubation time gradient on oxidative phosphorylation in the mitochondria. […] At this point, the present disclosure discovers a natural activator of the oxidative phosphorylation, the baicalein. […] 1,000 cells or 4 μg mitochondria were added to the well plate provided by the Seahorse detection kit (Agilent, 103275-100). Related measurements were carried out following instructions.

For series [5] the following is noted: mouse, in vivo. The protocol:
(§2) The present disclosure carries out experiments to test proliferation inhibition effects of baicalein on hepatocellular-carcinoma cell lines HuH7 and HepG2 respectively, with IC50 values calculated. […] Moreover, the present disclosure establishes a diethylnitrosamine-induced mouse liver cancer model which is then intervened with baicalein.
(§3) All animal operations were carried out based on a protocol approved by the Animal Research Committee of Peking University, China, in accordance with the “Guidelines for Care and Use of Laboratory Animals” (NIH Publication No. 86-23, revised in 1985). All mice (C57BL/6j, Charles River, Beijing, China) were kept in a temperature-controlled barrier facility at Laboratory Animal Center in Peking University (laboratory animal facility approved by AAALAC) with a 12 h light/dark cycle, and had free access to food and water. Only male animals were used Animals were randomly grouped based on weight level. Five mice were selected for each group to meet requirements for statistical significance. A randomised, comparative, and single-blinded test was used. For wild littermates, modeling with diethylnitrosamine was started at 6 weeks of age and maintained for 24 weeks. After 12 weeks of modeling, 400 mg/kg baicalein (40 mg/mL saline) was administered by gavage daily for another 12 weeks, and then liver disease-related symptoms of these mice were analyzed.
(§4) A liver sample cut from a same leaf of each animal was fixed in 4% paraformaldehyde overnight at room temperature, dehydrated with an ethanol gradient, infiltrated with xylene and embedded in paraffin. A paraffin embedded tissue was used to prepare serial sections 5 μm thick for hematoxylin and eosin (H&E) staining.

Series [6] has as its system diethylnitrosamine-induced hepatocellular carcinoma. The conditions noted are these: 400 mg/kg by gavage daily for 12 weeks. The protocol: as §2, §3, §4
Another series deals with HepG2 cells. As to the kind of experiment: MTT assay, proliferation inhibition of hepatocellular-carcinoma cell line HepG2. The series is classed as cell-based. The procedure: as §2
(§5) Hela, HepG2, and HuH7 cells (from China Center for Type Culture Collection (Wuhan, China)) were cultured at 37° C. with 5% CO2 in Dulbecco's modified Eagle medium (DMEM, Thermo Fisher Scientific) supplemented with 10% fetal bovine serum (Thermo Fisher Scientific) and 1% penicillin-streptomycin (Thermo Fisher Scientific).
as §1

Series [7] relates to HuH7 cells. Kind of series: MTT assay, proliferation inhibition of hepatocellular-carcinoma cell line HuH7. The series is classed as cell-based. The procedure:
as §2, §5, §1

Regarding `O=c1cc(-c2ccccc2)oc2cc(O)c(O)c(O)c12` [baicalein], in series [1], the glycolysis result is “inhibits the glycolysis” and the “level of oxidative phosphorylation” value is given as “increasing level of the oxidative phosphorylation”. Also, the “anti-cancer activity after knockdown of a key enzyme of oxidative phosphorylation” value in the series on HuH7 cells [2] is recorded as “greatly weakened”. In addition, the “oxidative phosphorylation in the mitochondria” value in series [3] was “activation of the oxidative phosphorylation in a concentration dependent and time dependent manner”. In addition, the glycolysis result in series [4] was “inhibits the glycolysis”. Moreover, in series [4] (baicalein 100 μM), the “ATP production in oxidative phosphorylation” value was “can improve”, the basal respiration value result was “can improve” and the maximum respiration value entry was “can improve”. In addition, in series [4] (different concentrations of baicalein), the “level of oxidative phosphorylation” value is recorded as “activates the oxidative phosphorylation in a concentration dependent manner; also recorded: increasing level of the oxidative phosphorylation”. In series [5], the liver toxicity entry is on record as “no liver toxicity” and the “weight loss of mice” value was “no weight loss”. Besides, in series [6], the “therapeutic effect on mice with hepatocellular carcinoma” value was “significant therapeutic effect”. Moreover, in the series on HepG2 cells, the proliferation inhibition effect entry is listed as “significantly inhibits”. The proliferation inhibition effect result in the series with HuH7 cells [7] is given as “significantly inhibits”.
